Results on one molecule are retold here after paper PMC7217877, “N-AS-triggered SPMs are direct regulators of microglia in a model of Alzheimer’s disease” (Nature Communications, 2020).

Values joined by “and” are separate entries in the source; they are usually repeats but may differ in a detail not shown here. Equal values may be shown once.

Assay [1] relates to APP/PS1 mice. Put plainly: flow cytometry of brain microglia polarity (CD86/CD206, Fig 4e). Format: in vivo, mouse. As to conditions: APP/PS1 + N-AS, individual values. On the procedure:
(§1) Transgenic mouse lines over-expressing the hAPP695swe (APP) and presenilin-1M146V (PS1) mutations were originated from GlaxoSmithKline (Harlow, UK)[32] and maintained as described previously. We purchased 5×FAD mice from Jackson Labs (Stock number. 34840-JAX). Because APP/PS1 and 5xFAD mice show sex differences in disease progression, we used only male mice. To examine possible therapeutic effect of N-AS and aspirin in APP/PS1 mice, the N-AS (30 mg kg^−1, Sigma-Aldrich, 01912) was injected daily s.c. for 8 weeks to 7-months-old APP/PS1 mice until the age of 9 months, and aspirin (2 mg kg^−1, Sigma-Aldrich, A5376)[33] was administrated orally to 7-months-old APP/PS1 mice for 8 weeks. Also, to confirm possible therapeutic efficacy of N-AS in 5×FAD, the N-AS (30 mg kg^−1, Sigma-Aldrich, 01912) was injected daily s.c. for 4 weeks to 3-months-old 5×FAD mice until the age of 4 months. Block randomization method was used to allocate the animals to experimental groups. To eliminate the bias, we were blinded in experimental progress such as data collection and data analysis. Mice were housed at temperature of 22 °C and a 12 h day/12 h night cycle with free access to tap water and food pellets. All protocols were approved by the Kyungpook National University Institutional Animal Care and Use Committee.
Brain microglia polarity and immune cells in brain and blood were analyzed by flow cytometry. Cells from WT, APP/PS1, and APP/PS1 treated with N-AS mice brain were prepared as previously described with minor modifications. Brains of WT, APP/PS1, and APP/PS1 treated with N-AS mice were dissected and immediately transferred in ice-cold HBSS (Gibco). After gentle mincing, the brain was digested in a HBSS solution containing collagenase P (0.2 mg ml^−1, Roche), dispase II (0.8 mg ml^−1, Roche), DNase I (0.01 mg ml^−1, Roche), and collagenase A (0.3 mg ml^−1, Roche) at 37 °C for 1 h under gentle rocking. […] Red blood cells were lysed once at 4 °C for 10 min in 0.15 M NH4Cl ([…] Technologies), washed once with PBS (Gibco), and counted using cell counter (Logos biosystems). […]

In assay [2] the test system is APP/PS1 mice. Description: open field test (Supplementary Fig 7f-i). Format: in vivo, mouse. More on the design: open field test, sFig 7f (sheet untitled): unit not given here. On the procedure:
as §1, with “Also, to confirm possible therapeutic efficacy of N-AS in 5×FAD, the N-AS (30 mg kg^−1, Sigma-Aldrich, 01912) was injected daily s.c. for 4 weeks to 3-months-old 5×FAD mice until the age of 4 months.” left out, “Committee. […] Freezing was analyzed for 5 min. […] Overall activity in the box was measured, and the amount of time and distance traveled in the center arena was noted. […] The total number of transitions, latency to first enter the light chamber, distance traveled, and time spent in each chamber were recorded.” for “Committee.”

For `CCCCCCCCCCCCC/C=C/[C@@H](O)[C@H](CO)NC(C)=O` [N-AS, N-((2S,3R,E)-1,3-Dihydroxyoctadec-4-en-2-yl)acetamide], in the assay with APP/PS1 mice [1], the “calculated percentage of CD86+ CD206+ cells” value was 1.29 and 0.77 and 0.87 and 1.7 and 1.28 and 1.46; the “calculated percentage of CD86+ CD206- (pro-inflammatory microglia) cells” value is 0.012 and 0.071 and 0.011 and 0.023 and 0.034 and 0.025; the “calculated percentage of CD86- CD206+ (anti-inflammatory microglia) cells” value was 3.06 and 1.43 and 2.01 and 2.77 and 2.35 and 2.46. For the same molecule, in the assay on APP/PS1 mice [2] (APP/PS1 + N-AS, sums to 600 with sFig 7g), the “open field test, sFig 7f (sheet untitled)” value was 520.5 and 509.5 and 517.5 and 503.5 and 522.5 and 508 and 406.5 and 460.5. Also, the “locomotion and spontaneous activity, open field test” value with APP/PS1 mice [2] (N-AS vs APP/PS1) was “improved locomotion and spontaneous activity”.
